For this assay, the target named is T1, hITK enzyme (FLAG-tagged full-length hITK) (Homo sapiens, UniProt Q08881).
T1 construct: strongly expressing FLAG-tagged full-length hITK in Sf9 cells; FLAG; made in house; host or cells: Sf9 insect cells (ITK); Escherichia coli (GST-SLP76 substrate)
T1 sequence (Q08881 1-620): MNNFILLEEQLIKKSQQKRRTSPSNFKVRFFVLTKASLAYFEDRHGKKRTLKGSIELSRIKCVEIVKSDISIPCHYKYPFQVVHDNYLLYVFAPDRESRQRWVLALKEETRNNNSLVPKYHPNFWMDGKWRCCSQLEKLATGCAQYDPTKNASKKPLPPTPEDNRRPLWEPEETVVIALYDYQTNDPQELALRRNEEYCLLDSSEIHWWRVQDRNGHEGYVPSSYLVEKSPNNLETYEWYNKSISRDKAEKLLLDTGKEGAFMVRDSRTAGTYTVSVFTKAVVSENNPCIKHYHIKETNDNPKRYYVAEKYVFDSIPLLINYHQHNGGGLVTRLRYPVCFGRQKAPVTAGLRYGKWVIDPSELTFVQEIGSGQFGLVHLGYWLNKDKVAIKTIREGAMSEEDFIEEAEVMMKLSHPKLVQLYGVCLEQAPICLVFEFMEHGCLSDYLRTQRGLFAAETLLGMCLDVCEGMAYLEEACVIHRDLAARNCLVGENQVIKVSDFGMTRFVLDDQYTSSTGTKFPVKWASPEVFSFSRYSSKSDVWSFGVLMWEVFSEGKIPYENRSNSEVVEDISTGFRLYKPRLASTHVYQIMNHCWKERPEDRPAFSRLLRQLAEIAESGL
Kind of assay: ITK inhibitory activity (HTRF kinase assay, biotinylated GST-SLP76 substrate). Format: biochemical. The settings on record: IC50 calculated from the 2 test compound concentrations sandwiching 50% ITK inhibitory rate. Here is the method:
(1) Preparation of hITK Enzyme
hITK enzyme was prepared by strongly expressing FLAG-tagged full-length hITK in Sf9 cells, and purifying same by anti-FLAG antibody column.
(2) Preparation of biotinylated GST-SLP76
Biotinylated GST-SLP76 was prepared by strongly expressing GST-tagged SLP76 (aa95-175) in Escherichia coli, purifying same by glutathion sepharose column and biotinylating same.
(3) Preparation of Solution
(i) buffer for dilution: 20 mmol/L 3-(N-morpholino)propanesulfonic acid (pH 7.0) (DOJINDO LABORATORIES), 10 mmol/L magnesium chloride (Sigma-Aldrich Corporation), 1 mmol/L dithiothreitol (Nacalai Tesque, Inc.), 0.1% gelatin (Sigma-Aldrich Corporation)
(ii) substrate solution: 0.2 μg/mL biotinylated GST-SLP76, 100 μmol/L ATP (Sigma-Aldrich Corporation), prepared with buffer for dilution
(iii) test compound solution: test compound, 50% dimethyl sulfoxide (DMSO), prepared with buffer for dilution
(iv) enzyme solution: 50 ng/mL hITK enzyme, prepared with buffer for dilution
(v) control solution: solution after removal of test compound from the mixture of the above-mentioned (i), (ii) and (iii)
(vi) blank solution: solution after removal of ATP from the mixture of the above-mentioned (i), (ii) and (iii)
(vii) detection buffer: 0.1 μg/mL Anti-Phosphotyrosine (PT66)-Cryptate (Cisbio), 2.5 μg/mL streptavidin-binding XL665 (Cisbio), 50 mmol/L 4-(2-hydroxyethyl)-1-piperazineethanesulfonic acid (pH 7.4) (Nacalai Tesque, Inc.), 30 mmol/L EDTA (NipponGene), 0.1% TritonX (Sigma-Aldrich Corporation), 200 mmol/L potassium fluoride (Wako Pure Chemical Industries, Ltd.), 0.05% bovine serum albumin (Sigma-Aldrich Corporation) (4) Measurement of ITK Inhibitory Activity
A substrate solution (25 μL/well), a test compound solution (5 μL/well) and an enzyme solution (20 μL/well) were added into 96 well half-area white plate (plate, Corning Incorporated 3642) to start a kinase reaction. The plate was stood still at room temperature for 10 min. Then, a detection buffer (50 μL/well) was added to the plate. After 2 hr from the addition of the detection buffer, fluorescence intensity at 620 nm (excited at 337 nm), and fluorescence intensity at 665 nm ([…]) were measured by a fluorescence microplate reader.
The Ratio (fluorescence intensity at 665 nm/fluorescence intensity at 620 nm×10000) of each test compound was calculated from the measured fluorescence intensity. Simultaneously, the measurement was performed using a blank solution and a control solution, and % of control value of each test compound was calculated from the following formula. % of control=(Ratio of test compound−Ratio of blank)/(Ratio of control−Ratio of blank)×100 ITK inhibitory rate (%)=100−(% of control)
The IC50 value was calculated from the test compound concentrations at 2 points sandwiching 50% ITK inhibitory rate.
In the test for the compounds of Examples 380 and 381, the ATP concentration of the substrate solutions was 6 μmol/L.
For the compound `CN(C(=O)CC1CCCC1)c1ccc2cc(-c3n[nH]c4c3CCC(C)(C)C4)[nH]c2c1` [Example 92], the IC50 was 10 nM.

With `CN(C(=O)CCC1CCCCC1)c1ccc2cc(-c3n[nH]c4c3CCC(C)(C)C4)[nH]c2c1` [Example 93], the concentration for half-maximal inhibition (IC50) is 48 nM.

With `CN(C(=O)CC1CCOCC1)c1ccc2cc(-c3n[nH]c4c3CCC(C)(C)C4)[nH]c2c1` [Example 94], the IC50 is 4 nM.

Regarding `CN(C(=O)C(O)C1CCOCC1)c1ccc2cc(-c3n[nH]c4c3CCC(C)(C)C4)[nH]c2c1` (stereo not shown) [Example 95], the IC50 is 3 nM.

With `CN(C(=O)C(O)C1CCCOC1)c1ccc2cc(-c3n[nH]c4c3CCC(C)(C)C4)[nH]c2c1` (stereo not shown) [Example 96], the IC50 is 3 nM.

As for `CC(C(=O)N(C)c1ccc2cc(-c3n[nH]c4c3CCC(C)(C)C4)[nH]c2c1)C1CCCCC1` (stereo not shown) [Example 97], the IC50 was 20 nM.

On to `CC(C(=O)N(C)c1ccc2cc(-c3n[nH]c4c3CCC(C)(C)C4)[nH]c2c1)C1CCOCC1` (stereo not shown) [Example 98], for which the IC50 is 3 nM.

For `COC1CCCC(C(=O)N(C)c2ccc3cc(-c4n[nH]c5c4CCC(C)(C)C5)[nH]c3c2)C1` (stereo not shown) [Example 99], the IC50 is 26 nM.

Turning to `COC1CCCC(C(=O)N(C)c2ccc3cc(-c4n[nH]c5c4CCC(C)(C)C5)[nH]c3c2)C1` (stereo not shown) [Example 100], the IC50 is 5 nM.

`CN(c1ccc2cc(-c3n[nH]c4c3CCC(C)(C)C4)[nH]c2c1)C(=O)[C@H]1CC[C@H](O)CC1` [Example 101]: the IC50 was 13 nM.

In the case of `CN(C(=O)OC1CCCCC1)c1ccc2cc(-c3n[nH]c4c3CCC(C)(C)C4)[nH]c2c1` [Example 102], the IC50 is 117 nM.

In the case of `CN(C(=O)CC1CCCOC1)c1ccc2cc(-c3n[nH]c4c3CCC(C)(C)C4)[nH]c2c1` (stereo not shown) [Example 103], the IC50 was 3 nM.

In the case of `CC(C(=O)N(C)c1ccc2cc(-c3n[nH]c4c3CCC(C)(C)C4)[nH]c2c1)N1CCOCC1` (stereo not shown) [Example 104], the IC50 was 4 nM.

With `CN(C(=O)CN1CCCCC1=O)c1ccc2cc(-c3n[nH]c4c3CCC(C)(C)C4)[nH]c2c1` [Example 105], the 50% inhibitory concentration (IC50) was 2 nM.

Consider `CN(C(=O)C1CC(=O)OC1(C)C)c1ccc2cc(-c3n[nH]c4c3CCC(C)(C)C4)[nH]c2c1` (stereo not shown) [Example 106], for which the IC50 was 7 nM.

As to `CN(C(=O)CN1CCC(O)CC1)c1ccc2cc(-c3n[nH]c4c3CCC(C)(C)C4)[nH]c2c1` [Example 107], the IC50 is 10 nM.

On to `CC(C(=O)N(C)c1ccc2cc(-c3n[nH]c4c3CCC(C)(C)C4)[nH]c2c1)N1CCC(O)CC1` (stereo not shown) [Example 108], for which the IC50 was 15 nM.

`CN(C(=O)CN1CCC[C@H](O)C1)c1ccc2cc(-c3n[nH]c4c3CCC(C)(C)C4)[nH]c2c1` [Example 109]: the IC50 is 6 nM.

Regarding `CN(C(=O)CN1CCC[C@@H](O)C1)c1ccc2cc(-c3n[nH]c4c3CCC(C)(C)C4)[nH]c2c1` [Example 110], the IC50 is 7 nM.

Take `CC(C(=O)N(C)c1ccc2cc(-c3n[nH]c4c3CCC(C)(C)C4)[nH]c2c1)N1CCC[C@H](O)C1` (stereo partly shown) [Example 111]: the IC50 was 9 nM.

Take `CC(C(=O)N(C)c1ccc2cc(-c3n[nH]c4c3CCC(C)(C)C4)[nH]c2c1)N1CCC[C@@H](O)C1` (stereo partly shown) [Example 112]: the IC50 is 7 nM.

On to `COC1CCN(C(C)C(=O)N(C)c2ccc3cc(-c4n[nH]c5c4CCC(C)(C)C5)[nH]c3c2)CC1` (stereo not shown) [Example 113], for which the IC50 was 9 nM.

On to `CO[C@H]1CCCN(CC(=O)N(C)c2ccc3cc(-c4n[nH]c5c4CCC(C)(C)C5)[nH]c3c2)C1` [Example 114], for which the IC50 is 5 nM.

Turning to `CO[C@@H]1CCCN(CC(=O)N(C)c2ccc3cc(-c4n[nH]c5c4CCC(C)(C)C5)[nH]c3c2)C1` [Example 115], the IC50 is 4 nM.

In the case of `CO[C@H]1CCCN(C(C)C(=O)N(C)c2ccc3cc(-c4n[nH]c5c4CCC(C)(C)C5)[nH]c3c2)C1` (stereo partly shown) [Example 116], the IC50 is 9 nM.

As for `CO[C@@H]1CCCN(C(C)C(=O)N(C)c2ccc3cc(-c4n[nH]c5c4CCC(C)(C)C5)[nH]c3c2)C1` (stereo partly shown) [Example 117], the half-inhibitory concentration (IC50) is 6 nM.

For `CC1CN(CC(=O)N(C)c2ccc3cc(-c4n[nH]c5c4CCC(C)(C)C5)[nH]c3c2)CC(C)O1` (stereo not shown) [Example 118], the IC50 is 3 nM.

Regarding `C[C@@H]1CN(CC(=O)N(C)c2ccc3cc(-c4n[nH]c5c4CCC(C)(C)C5)[nH]c3c2)C[C@H](C)O1` [Example 119], the IC50 was 3 nM.

On to `CC1CN(C(C)C(=O)N(C)c2ccc3cc(-c4n[nH]c5c4CCC(C)(C)C5)[nH]c3c2)CC(C)O1` (stereo not shown) [Example 120], for which the half-maximal inhibitory concentration (IC50) was 5 nM.

With `CC(C(=O)N(C)c1ccc2cc(-c3n[nH]c4c3CCC(C)(C)C4)[nH]c2c1)N1C[C@@H](C)O[C@@H](C)C1` (stereo partly shown) [Example 121], the IC50 was 5 nM.

On to `CC(C(=O)N(C)c1ccc2cc(-c3n[nH]c4c3CCC(C)(C)C4)[nH]c2c1)N1CCCCC1` (stereo not shown) [Example 122], for which the IC50 was 20 nM.

For `CN(C(=O)COC1CCCOC1)c1ccc2cc(-c3n[nH]c4c3CCC(C)(C)C4)[nH]c2c1` (stereo not shown) [Example 123], the IC50 was 2 nM.

As to `CN(C(=O)C1CCCCC1)c1ccc2cc(-c3n[nH]c4c3CCC(C)(C)C4)[nH]c2c1` [Example 124], the IC50 is 12 nM.

Turning to `CCC(=O)N(C)CC(=O)N(C)c1ccc2cc(-c3n[nH]c4c3CCC(C)(C)C4)[nH]c2c1` [Example 125], the IC50 is 1 nM.

Consider `CNCC(=O)N(C)c1ccc2cc(-c3n[nH]c4c3CCC(C)(C)C4)[nH]c2c1` [Example 126], for which the IC50 is 8 nM.

Take `CN(C(=O)CN1CCCCCC1=O)c1ccc2cc(-c3n[nH]c4c3CCC(C)(C)C4)[nH]c2c1` [Example 127]: the IC50 is 1 nM.

`CN(C(=O)C1CCC(=O)N1)c1ccc2cc(-c3n[nH]c4c3CCC(C)(C)C4)[nH]c2c1` (stereo not shown) [Example 128]: the IC50 is 2 nM.

With `CCC(C(=O)N(C)c1ccc2cc(-c3n[nH]c4c3CCC(C)(C)C4)[nH]c2c1)N1CCOCC1` (stereo not shown) [Example 129], the IC50 was 5 nM.

With `CC1COCC(=O)N1CC(=O)N(C)c1ccc2cc(-c3n[nH]c4c3CCC(C)(C)C4)[nH]c2c1` (stereo not shown) [Example 130], the IC50 was 2 nM.

On to `CN(C(=O)C(O)COC1CCCC1)c1ccc2cc(-c3n[nH]c4c3CCC(C)(C)C4)[nH]c2c1` (stereo not shown) [Example 131], for which the IC50 is 25 nM.

Take `CC(C)OCC(O)C(=O)N(C)c1ccc2cc(-c3n[nH]c4c3CCC(C)(C)C4)[nH]c2c1` (stereo not shown) [Example 132]: the 50% inhibitory concentration (IC50) is 13 nM.

`CC(C(=O)N(C)c1ccc2cc(-c3n[nH]c4c3CCC(C)(C)C4)[nH]c2c1)N1CCCCC1=O` (stereo not shown) [Example 133]: the IC50 was 10 nM.

For `CC(C(=O)N(C)c1ccc2cc(-c3n[nH]c4c3CCC(C)(C)C4)[nH]c2c1)N1CCCC1=O` (stereo not shown) [Example 134], the IC50 was 8 nM.

For `C[C@H](C(=O)N(C)c1ccc2cc(-c3n[nH]c4c3CCC(C)(C)C4)[nH]c2c1)N1CCOCC1` [Example 135], the IC50 was 6 nM.

Take `CC1CCC(=O)N1CC(=O)N(C)c1ccc2cc(-c3n[nH]c4c3CCC(C)(C)C4)[nH]c2c1` (stereo not shown) [Example 136]: the half-maximal inhibitory concentration (IC50) is 2 nM.

For `CC1CCCC(=O)N1CC(=O)N(C)c1ccc2cc(-c3n[nH]c4c3CCC(C)(C)C4)[nH]c2c1` (stereo not shown) [Example 137], the IC50 was 2 nM.

In general, IC50 refers to the midpoint of a concentration-inhibition curve.

The values above are taken from patent publication US8299070B2, “Indole compounds and pharmaceutical use thereof” (Japan Tobacco Inc., priority 2009, dated 2012).
